Data reported in US20230123334A1, “AMINO LIPID COMPOUND, PREPARATION METHOD THEREFOR, AND APPLICATION THEREOF” (SHENZHEN SHENXIN BIOTECHNOLOGY CO., LTD., priority 2020, published 2023).

Test system: HEK293 cells
Assay: Preliminary screening as mRNA vectors, EGFP mRNA transfection of HEK293 cells
Format: cell-based
Conditions: EGFP mRNA 50 ng per well, 96-well plates; percentage of GFP fluorescent cells relative to total number of cells (Hoechst)
Method in brief: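 Each well of HEK293 cells received 50 ng of EGFP mRNA. Efficiency was expressed as percent GFP-expressing cells over Hoechst-defined total cell number.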

CCCCCCCCCCSc1nc(NCCCCCCC)nc(NCCN2CCCC2)n1 [Compound D3S10N7]
Absolute mRNA transfection efficiency in HEK293 cells: 1.4%

CCCCCCCCCCSc1nc(NCCCCCCCCC)nc(NCCCN2CCOCC2)n1 [Compound D8S10N9]
Absolute mRNA transfection efficiency in HEK293 cells: 0.1%

CCCCCCCCCCCCCCCCCCSc1nc(NCCCCCCCCCCCCC)nc(NCCN(C)C)n1 [Compound D1S18N13]
Absolute mRNA transfection efficiency in HEK293 cells: 0.2%

CCCCCCCCCCCSc1nc(NCCN(C)C)nc(SCCCCCC)n1 [Compound D1S6S11]
Absolute mRNA transfection efficiency in HEK293 cells: 0.4%

CCCCCCCCCCCCN(CCCCCCCCCCCC)c1nc(NCCN(CC)CC)nc(SCCCCCCC)n1 [D7S7^2N12]
Absolute mRNA transfection efficiency in HEK293 cells: 1.2%

CCCCCCCCCCCCCCCNc1nc(NCCN2CCCCC2)nc(SCCCCCCCCCCCC)n1 [Compound D4S12N15]
Absolute mRNA transfection efficiency in HEK293 cells: 2.0%

CCCCCCCCCCCCCCCCSc1nc(NCC2CCN(C)CC2)nc(SCCCCCCC)n1 [Compound D10S7S16]
Absolute mRNA transfection efficiency in HEK293 cells: 73.7%

CCCCCCCCCCCCCCCCCCSc1nc(NCCCCCCCCCCC)nc(NCCN(C)C)n1 [Compound D1S18N11]
Absolute mRNA transfection efficiency in HEK293 cells: 1.3%

CCCCCCCCCCCCCCCCSc1nc(NCCCCCCCCCCC)nc(NCCN2CCCCC2)n1 [Compound D4S16N11]
Absolute mRNA transfection efficiency in HEK293 cells: 0.5%

CCCCCCCCCCCCCCCCCCNc1nc(NCCN2CCN(C)CC2)nc(SCCCCCCCCCCC)n1 [Compound D5S11N18]
Absolute mRNA transfection efficiency in HEK293 cells: 4.7%

CCCCCCCCCCCCCCCCNc1nc(NCCN(C)C)nc(SCCCCCCCCCCCCCCC)n1 [Compound D1S15N16]
Absolute mRNA transfection efficiency in HEK293 cells: 3.2%

CCCCCCCCCCCCCCCCNc1nc(NCCCN2CCOCC2)nc(SCCCCCCC)n1 [Compound D8S7N16]
Absolute mRNA transfection efficiency in HEK293 cells: 1.2%

CCCCCCCCCCCCCCCCCCSc1nc(NCCCCCCC)nc(NCCN2CCN(C)CC2)n1 [Compound D5S18N7]
Absolute mRNA transfection efficiency in HEK293 cells: 67.7%

CCCCCCCCCCSc1nc(NCCCCCC)nc(NCCN2CCOCC2)n1 [Compound D2S10N6]
Absolute mRNA transfection efficiency in HEK293 cells: 0.1%

CCCCCCCCCCCCNc1nc(NCCN2CCCC2)nc(SCCCCCCCC)n1 [Compound D3S8N12]
Absolute mRNA transfection efficiency in HEK293 cells: 24.6%

CCCCCCCCCCCCCNc1nc(NCCCN2CCOCC2)nc(SCCCCCCCC)n1 [Compound D8S8N13]
Absolute mRNA transfection efficiency in HEK293 cells: 1.5%

CCCCCCCCCCCCSc1nc(NCCCN2CCOCC2)nc(SCCCCCCC)n1 [Compound D8S7S12]
Absolute mRNA transfection efficiency in HEK293 cells: 20.7%

CCCCCCCCCCCCN(CCCCCCCCCCCC)c1nc(NCCN2CCCCC2)nc(SCCCCCCCCCC)n1 [D4S10^2N12]
Absolute mRNA transfection efficiency in HEK293 cells: 0.1%

CCCCCCCCCCCCCCCCNc1nc(NCCN2CCOCC2)nc(SCCCCCCCCC)n1 [Compound D2S9N16]
Absolute mRNA transfection efficiency in HEK293 cells: 1.4%

CCCCCCCCCCCCCCSc1nc(NCCCN2CCOCC2)nc(SCCCCCCC)n1 [Compound D8S7S14]
Absolute mRNA transfection efficiency in HEK293 cells: 21.2%

CCCCCCCNc1nc(NCCN2CCOCC2)nc(SCCCCCCC)n1 [Compound D2S7N7]
Absolute mRNA transfection efficiency in HEK293 cells: 1.1%

CCCCCCCCCCCCCCCCCCSc1nc(NCCCCCCCCCCCCCCC)nc(NCCCN2CCN(C)CC2)n1 [Compound D9S18N15]
Absolute mRNA transfection efficiency in HEK293 cells: 0.0%

CCCCCCCCCCCCCCSc1nc(NCCCCCCCCCCCC)nc(NCCCN(C)C)n1 [Compound D6S14N12]
Absolute mRNA transfection efficiency in HEK293 cells: 17.0%

CCCCCCCCCCCCCCCNc1nc(NCCN2CCCCC2)nc(SCCCCCCCCCC)n1 [Compound D4S10N15]
Absolute mRNA transfection efficiency in HEK293 cells: 1.5%

CCCCCCCCCCCSc1nc(NCCCCCC)nc(NCCCN(C)C)n1 [Compound D6S11N6]
Absolute mRNA transfection efficiency in HEK293 cells: 1.7%

CCCCCCCCCCCCCCSc1nc(NCCCCCCCCCCCC)nc(NCCCN2CCN(C)CC2)n1 [Compound D9S14N12]
Absolute mRNA transfection efficiency in HEK293 cells: 8.0%

CCCCCCCCCCCCCNc1nc(NCC2CCN(C)CC2)nc(SCCCCCCCC)n1 [Compound D10S8N13]
Absolute mRNA transfection efficiency in HEK293 cells: 75.0%

CCCCCCCCCCCCNc1nc(NCCN2CCOCC2)nc(SCCCCCCCC)n1 [Compound D2S8N12]
Absolute mRNA transfection efficiency in HEK293 cells: 7.0%

CCCCCCCCCCCCCCSc1nc(NCCCCCC)nc(NCCN2CCCCC2)n1 [Compound D4S14N6]
Absolute mRNA transfection efficiency in HEK293 cells: 3.0%

CCCCCCCCCCCCCCCCCCNc1nc(NCCCN(C)C)nc(SCCCCCCCCCCCC)n1 [Compound D6S12N18]
Absolute mRNA transfection efficiency in HEK293 cells: 1.7%

CCCCCCCCCCCCCCCCCCNc1nc(NCCCN2CCN(C)CC2)nc(SCCCCCCCCCCCC)n1 [Compound D9S12N18]
Absolute mRNA transfection efficiency in HEK293 cells: 0.2%

CCCCCCCCCCCCCCCCCCNc1nc(NCCN2CCCCC2)nc(SCCCCCCCCCCCCCCCCCC)n1 [Compound D4S18N18]
Absolute mRNA transfection efficiency in HEK293 cells: 0.2%

CCCCCCCCCNc1nc(NCCN(CC)CC)nc(SCCCCCCCCC)n1 [Compound D7S9N9]
Absolute mRNA transfection efficiency in HEK293 cells: 17.8%

CCCCCCCCCCCCCCCCCCSc1nc(NCCCCCC)nc(NCCCN(C)C)n1 [Compound D6S18N6]
Absolute mRNA transfection efficiency in HEK293 cells: 74.8%

CCCCCCCCCCCCCCCNc1nc(NCC2CCN(C)CC2)nc(SCCCCCCCCCCC)n1 [Compound D10S11N15]
Absolute mRNA transfection efficiency in HEK293 cells: 18.6%

CCCCCCCCCCCCCCCNc1nc(NCCN(C)C)nc(SCCCCCCCCCCCC)n1 [Compound D1S12N15]
Absolute mRNA transfection efficiency in HEK293 cells: 0.5%

CCCCCCCCSc1nc(NCCN2CCN(C)CC2)nc(SCCCCCCC)n1 [Compound D5S7S8]
Absolute mRNA transfection efficiency in HEK293 cells: 16.6%

CCCCCCCNc1nc(NCCN(C)C)nc(SCCCCCCC)n1 [Compound D1S7N7]
Absolute mRNA transfection efficiency in HEK293 cells: 4.4%

CCCCCCCCCCCCCCCSc1nc(NCCN2CCN(C)CC2)nc(SCCCCCC)n1 [Compound D5S6S15]
Absolute mRNA transfection efficiency in HEK293 cells: 29.7%

CCCCCCCCCCSc1nc(NCCCCCCCC)nc(NCCCN(C)C)n1 [Compound D6S10N8]
Absolute mRNA transfection efficiency in HEK293 cells: 3.7%

CCCCCCCCCCCCSc1nc(NCCCCCC)nc(NCC2CCN(C)CC2)n1 [Compound D10S12N6]
Absolute mRNA transfection efficiency in HEK293 cells: 0.2%

CCCCCCCCSc1nc(NCCCCCC)nc(NCCN2CCN(C)CC2)n1 [Compound D5S8N6]
Absolute mRNA transfection efficiency in HEK293 cells: 1.6%

CCCCCCCCCCCCCCCNc1nc(NCCCN(C)C)nc(SCCCCCCCCCCCC)n1 [Compound D6S12N15]
Absolute mRNA transfection efficiency in HEK293 cells: 1.6%

CCCCCCCCCCCCN(CCCCCCCCCCCC)c1nc(NCCCN(C)C)nc(SCCCCCCCC)n1 [D6S8^2N12]
Absolute mRNA transfection efficiency in HEK293 cells: 1.5%

CCCCCCCCCCCCCCCCNc1nc(NCC2CCN(C)CC2)nc(SCCCCCC)n1 [Compound D10S6N16]
Absolute mRNA transfection efficiency in HEK293 cells: 41.5%

CCCCCCCCCNc1nc(NCC2CCN(C)CC2)nc(SCCCCCC)n1 [Compound D10S6N9]
Absolute mRNA transfection efficiency in HEK293 cells: 1.2%

CCCCCCCCCCCCCCCCNc1nc(NCCN2CCOCC2)nc(SCCCCCCCCCCCCCCCC)n1 [Compound D2S16N16]
Absolute mRNA transfection efficiency in HEK293 cells: 0.0%

CCCCCCCSc1nc(NCCCN2CCN(C)CC2)nc(SCCCCCC)n1 [Compound D9S6S7]
Absolute mRNA transfection efficiency in HEK293 cells: 6.3%

CCCCCCCCCCCCCCSc1nc(NCC2CCN(C)CC2)nc(N(CCCCCCCCCCCC)CCCCCCCCCCCC)n1 [D10S14^2N12]
Absolute mRNA transfection efficiency in HEK293 cells: 0.2%
